In the assay the test system is Adult rat DRG neurons. Put plainly: Measurement of gene expression in adult DRG neurons by real-time PCR. In kind it is cell-based. Here is the method: Dorsal root ganglia were dissected from adult (3-6 months old) Sprague-Dawley rats, and dissociated and cultured by standard techniques (Lindsay, 1988). Briefly, ganglia were stripped of their sheaths, and incubated in 0.125% collagenase type IV (Worthington) in Ham's F12 with 10% HIHS for two 90 minute periods at 37° C. They were then washed extensively and incubated in 0.25% trypsin (Worthington) in HBSS at 37 degrees for 30 minutes. After inactivation of trypsin with 10% heat inactivated horse serum and further washing, the ganglia were dissociated by gentle trituration through a flame polished Pasteur pipet.
Neurons were plated on polyornithine and laminin coated 96-well plates in defined serum free medium consisting of Hams F-14 nutrient mixture with plus 2 mM glutamine, 0.35% bovine serum albumin (Albumax II, Gibco-BRL or Pathocyte-5, ICN), 60 ng/ml progesterone, 16 ug/ml putrescine, 400 ng/ml L-thyroxine, 38 ng/ml sodium selenite, 340 ng/ml tri-iodo-thyronine, 60 ug/ml penicillin and 100 ug/ml streptomycin (Sigma) (Davies et al., 1993). NGF (10 ng/ml) and test compounds were added to the wells shortly before or after plating as described below.
Adult rat DRG neurons were plated in 96 well plates, exposed to different concentrations of NGF for 120 hours and specific mRNA expression was analysed using the Stratagene Mx4000 real time PCR instrument. These conditions allow detection of greater than 15-fold increase in substance P mRNA content relative to GAPDH mRNA at the highest concentration of NGF used (FIG. 1). In addition, it was shown that a greater than 3-fold reduction in galanin mRNA level relative to GAPDH mRNA at the highest concentration of NGF can be measured (FIG. 1).
After culture as described above for 5 days RNA was extracted and the ratio of substance P mRNA expression determined relative to GAPDH mRNA for RNA from each of the culture wells by RT-PCR. RT-PCR was also performed to determine the ratio of galanin to GAPDH mRNA for each RNA sample. […]

The results in this text go back to US20060147932A1, “Methods of screening for modulators of nerve growth factor” (priority 2003, published 2006).

As to “NGF: nerve growth factor, the first neurotrophin identified; acts through TrkA and p75 receptors”, the “reduction in galanin mRNA level relative to GAPDH mRNA” value (highest concentration of NGF (range up to 50 ng/ml), 120 hours exposure, relative to cultures with no added NGF (FIG. 1)) is recorded as “greater than 3 fold”. In addition, the “increase in substance P mRNA content relative to GAPDH mRNA” value (highest concentration of NGF used (range up to 50 ng/ml), 120 hours exposure, 96 well plates, relative to cultures with no added NGF (FIG. 1)) is “greater than 15 fold”. Moreover, the “combined difference in gene expression (substance P and galanin combined in a single assay) in the absence or presence of NGF” value (substance P mRNA relative to galanin mRNA, 120 hours exposure (FIG. 1)) is listed as “approximately 50 fold”.
